Experimental data: US20240391871A1, “SUBSTITUTED HYDROXYMETHYL PYRROLIDINES AND MEDICAL USES THEREOF” (ATROGI AB, priority 2021, published 2024)
Counter-ions that a name gives are not always drawn.

Tests used:
Assay type in all cases: cell-based
L6-myotubes [1] = assay: Glucose uptake in L6-myotubes in the presence of the β2-antagonist ICI-118,551; conditions: compound 1×10^−5 M, ICI-118,551 1×10^−5 M
Experimental: (§1) L6-myoblasts were grown in Dulbecco's Modified Eagle's Medium (DMEM) containing 1 g/L glucose supplemented with 10% fetal bovine serum, 2 mM L-Glutamine, 50 U/mL penicillin, 50 μg/mL streptomycin and 10 mM HEPES. Cells were plated at 1×10^5 cells per mL in 24-well plates. After reaching 90% confluence the cells were grown in medium containing 2% FBS for 7 days where upon cells differentiated into myotubes.
Differentiated L6-myotubes were serum-starved overnight in medium containing 0.5% fatty-acid free BSA and were incubated with the β2-adrenergic receptor antagonist ICI-118,551 at a final concentration of 1×10^−5 M for 30 min. The cells were stimulated with a compound of the invention, at a final concentration of 1×10^−5 M. After 1 h 40 min the cells were washed twice with warm, glucose free medium or PBS and additional portions of the compound of the invention and the antagonist were added. After 20 min the cells were exposed to 50 nM ^3H-2-deoxyglucose for 10 min before washed with ice cold glucose free medium or PBS three times and lysed with 0.2 M NaOH, 400 μL/well, for 1 h at 60° C. The cell lysate was mixed with 4 mL scintillation buffer (Emulsifier Safe, Perkin Elmer) and the radioactivity was detected in a β-counter (Tri-Carb 4810TR, Perkin Elmer). The activity for each compound is compared to that of isoproterenol.

L6-myotubes [2] = assay: Glucose uptake (3H-2-deoxyglucose) in differentiated L6-myotubes; conditions: compound 1×10^−5 M; for Emax at 10 µM: read-out: Biological example 1: glucose uptake, activity compared to that of isoproterenol
Experimental: as §1
Differentiated L6-myotubes were serum-starved overnight in medium containing 0.5% fatty-acid free BSA and stimulated with an agonist, with a final concentration of 1×10^−5 M. After 1 h 40 min the cells were washed with warm glucose free medium or PBS twice and another portion of agonist was added to the glucose free medium. After 20 min the cells were exposed to 50 nM ^3H-2-deoxyglucose for 10 min before washed with ice cold glucose free medium or PBS three times and lysed with 0.2 M NaOH, 400 μL/well, for 1 h at 60° C. The cell lysate was mixed with 4 mL scintillation buffer (Emulsifier Safe, Perkin Elmer) and the radioactivity was detected in a β-counter (Tri-Carb 4810TR, Perkin Elmer). The activity for each compound is compared to that of isoproterenol.

[3] = tested on: Intracellular cAMP levels; assay: Measurement of intracellular cAMP levels in differentiated L6 cells; conditions: compound 1×10^−5 M, 15 min; for Emax at 10 µM: Rattus norvegicus, L6, 0.25 h, read-out: Biological example 2: intracellular cAMP levels, activity compared to that of isoproterenol
Experimental: as §1
Differentiated cells were serum-starved overnight and stimulated with an agonist, final concentration 1×10^−5 M, for 15 min in stimulation buffer (HBSS supplemented with 1% BSA, 5 mM HEPES and 1 mM IBMX, pH 7.4). The medium was aspirated and 100 μL of 95% EtOH was added to each well of the 24-well plate and cells were kept at −20° C. overnight. The EtOH was allowed to evaporate and 500 μL of lysis buffer (1% BSA, 5 mM HEPES and 0.3% Tween-20, pH 7.4) was added to each well. The plate was kept at −80° C. for 30 min and then at −20° C. until the day of detection when the samples were thawed. Intracellular cAMP levels were detected using an alpha screen cAMP kit (6760635D from Perkin Elmer). The activity for each compound is compared to that of isoproterenol.

SMILES	Emax at 10 µM (L6-myotubes [2]) [%]	Emax at 10 µM [3] [%]	further results
CO[C@H]1CC[C@H](C[C@@H]2CC[C@H]([C@H](O)c3ccccc3F)N2)CC1.Cl [Example 5]	–	–	Biological example 3: glucose uptake in the presence of the β2-antagonist ICI-118,551, activity compared to that of isoproterenol (L6-myotubes [1]): − (less than 25%)
CO[C@H]1CC[C@H](C[C@@H]2CC[C@H]([C@@H](O)c3cccc(F)c3)N2)CC1.Cl [Example 2, (S)-(3-Fluorophenyl)((2R,5S)-5-(((1r,4S)-4-methoxycyclohexyl) -methyl)pyrrolidin-2-yl)methanol hydrochloride]	–	–	Biological example 1: glucose uptake, activity compared to that of isoproterenol (L6-myotubes [2]): +++ (more than 75% of that of isoproterenol); Biological example 3: glucose uptake in the presence of the β2-antagonist ICI-118,551, activity compared to that of isoproterenol (L6-myotubes [1]): − (less than 25%); Biological example 2: intracellular cAMP levels, activity compared to that of isoproterenol [3]: − (less than 25%)
CC(=O)N(Cc1ccccc1)[C@H]1CC[C@@H](C[C@@H]2CC[C@H]([C@H](O)c3cccc(F)c3)N2)CC1 [Example 33, N-Benzyl-N-((1R,4s)-4-(((25,5R)-5-((R)-(3-fluorophenyl)(hydroxy)methyl) -pyrrolidin-2-yl)methyl)cyclohexyl)acetamide hydrochloride]	50 to 75	< 25	–
CO[C@H]1CC[C@H](C[C@H]2CC[C@H]([C@H](O)c3cncc(F)c3)N2)CC1 [Example 11, (R)-(5-Fluoropyridin-3-yl)((2R,5R)-5-(((1r,4S)-4-methoxycyclohexyl) -methyl)pyrrolidin-2-yl)methanol dihydrochloride]	> 75	< 25	–
COc1ccc(C[C@@H]2CC[C@H]([C@H](O)c3cncc(F)c3)N2)cc1 [Example 21, (R)-(5-Fluoropyridin-3-yl)((2R,5S)-5-(4-methoxybenzyl)pyrrolidin-2-yl) -methanol dihydrochloride]	> 75	< 25	–
CO[C@H]1CC[C@H](C[C@H]2CC[C@H]([C@@H](O)c3cncc(F)c3)N2)CC1 [Example 12, (S)-(5-Fluoropyridin-3-yl)(2R,5R)-5-(((1r,4S)-4-methoxycyclohexyl) -methyl)pyrrolidin-2-yl)methanol dihydrochloride]	25 to 50	< 25	–
CO[C@H]1CC[C@H](C[C@@H]2CC[C@H]([C@@H](O)c3ccccc3F)N2)CC1 [Example 6, (S)-(2-Fluorophenyl)((2R,5S)-5-(((1r,4S)-4-methoxycyclohexyl)methyl) -pyrrolidin-2-yl)methanol hydrochloride]	25 to 50	< 25	–
CO[C@H]1CC[C@H](C[C@@H]2CC[C@H]([C@H](O)c3cccc(F)c3)N2)CC1.Cl [Example 1, (R)-(3-Fluorophenyl)((2R,5S)-5-(((1r,4S)-4-methoxycyclohexyl)methyl) -pyrrolidin-2-yl)methanol hydrochloride]	–	–	Biological example 1: glucose uptake, activity compared to that of isoproterenol (L6-myotubes [2]): +++ (more than 75% of that of isoproterenol); Biological example 3: glucose uptake in the presence of the β2-antagonist ICI-118,551, activity compared to that of isoproterenol (L6-myotubes [1]): − (less than 25%); Biological example 2: intracellular cAMP levels, activity compared to that of isoproterenol [3]: − (less than 25%)
O[C@@H](c1cccc(F)c1)[C@H]1CC[C@H](Cc2ccc(Cl)cc2)N1 [Example 28, (S)-((2R,5R)-5-(4-Chlorobenzyl)pyrrolidin-2-yl)(3-fluorophenyl)methanol hydrochloride]	50 to 75	< 25	–
CS(=O)(=O)N(Cc1ccccc1)[C@H]1CC[C@H](C[C@@H]2CC[C@H]([C@H](O)c3cccc(F)c3)N2)CC1 [Example 45, N-Benzyl-N-((1S,4r)-4-(((2S,5R)-5-((R)-(3-fluorophenyl)(hydroxy) -methyl)pyrrolidin-2-yl)methyl)cyclohexyl)methanesulfonamide hydrochloride]	< 25	< 25	–
COc1ccc(C[C@H]2CC[C@H]([C@H](O)c3cccc(F)c3)N2)cc1 [Example 15, (R)-(3-Fluorophenyl)((2R,5R)-5-(4-methoxybenzyl)pyrrolidin-2-yl)methanol]	> 75	< 25	–
CC(=O)N[C@H]1CC[C@H](C[C@@H]2CC[C@H]([C@H](O)c3cccc(F)c3)N2)CC1.Cl [Example 42, N-((1S,4r)-4-(((2S,5R)-5-((R)-(3-Fluorophenyl)(hydroxy)methyl)pyrrolidin-2-yl)methyl)cyclohexyl)acetamide hydrochloride]	–	–	Biological example 1: glucose uptake, activity compared to that of isoproterenol (L6-myotubes [2]; hydrochloride): ++ (between 75 and 50%); Biological example 2: intracellular cAMP levels, activity compared to that of isoproterenol [3]: − (less than 25%)
O[C@@H](c1cncc(F)c1)[C@H]1CC[C@@H](Cc2ccc(Cl)cc2)N1 [Example 30, (S)-(2R,5S)-5-(4-Chlorobenzyl)pyrrolidin-2-yl)(5-fluoropyridin-3-yl) -methanol dihydrochloride]	50 to 75	< 25	–
CS(=O)(=O)N[C@H]1CC[C@H](C[C@@H]2CC[C@H]([C@@H](O)c3cccc(F)c3)N2)CC1 [Example 48, N-((1S,4r)-4-(((2S,5R)-5-((S)-(3-Fluorophenyl)(hydroxy)methyl)pyrrolidin-2-yl)methyl)cyclohexyl)methanesulfonamide hydrochloride]	50 to 75	< 25	–
CO[C@H]1CC[C@H](C[C@H]2CC[C@H]([C@@H](O)c3cccc(F)c3)N2)CC1.Cl [Example 4, (S)-(3-Fluorophenyl)((2R,5R)-5-(((1r,4R)-4-methoxycyclohexyl)-methyl) -pyrrolidin-2-yl)methanol hydrochloride]	–	–	Biological example 1: glucose uptake, activity compared to that of isoproterenol (L6-myotubes [2]): + (between 50 and 25%); Biological example 2: intracellular cAMP levels, activity compared to that of isoproterenol [3]: − (less than 25%)
O[C@H](c1cccc(F)c1)[C@H]1CC[C@H](Cc2ccc(Cl)cc2)N1 [Example 27, (R)-((2R,5R)-5-(4-Chlorobenzyl)pyrrolidin-2-yl)(3-fluorophenyl)methanol hydrochloride]	> 75	< 25	–
O[C@H](c1cccc(F)c1)[C@H]1CC[C@@H](Cc2ccc(Cl)cc2)N1 [Example 25, (R)-((2R,5S)-5-(4-Chlorobenzyl)pyrrolidin-2-yl)(3-fluorophenyl)methanol hydrochloride]	> 75	< 25	–
O[C@H](c1cncc(F)c1)[C@H]1CC[C@H](Cc2ccc(Cl)cc2)N1 [Example 31, (R)-((2R,5R)-5-(4-Chlorobenzyl)pyrrolidin-2-yl)(5-fluoropyridin-3-yl) -methanol dihydrochloride]	> 75	< 25	–
COc1ccc(C[C@H]2CC[C@H]([C@@H](O)c3cccc(F)c3)N2)cc1 [Example 16, (S)-(3-Fluorophenyl)((2R,5R)-5-(4-methoxybenzyl)pyrrolidin-2-yl)methanol]	50 to 75	< 25	–
COc1ccc(C[C@@]2(C)CC[C@H]([C@H](O)c3cccc(F)c3)N2)cc1 [Example 19, (R)-(3-Fluorophenyl)((2R,5R)-5-(4-methoxybenzyl)-5-methylpyrrolidin-2-yl)methanol hydrochloride]	> 75	25 to 50	–
CC(=O)N[C@H]1CC[C@H](C[C@@H]2CC[C@H]([C@H](O)c3cccc(F)c3)N2)CC1.Cl [Example 34, N-((1S,4r)-4-(((2S,5R)-5-((R)-(3-Fluorophenyl)(hydroxy)methyl)pyrrolidin-2-yl)methyl)cyclohexyl)acetamide hydrochloride]	–	< 25	Biological example 1: glucose uptake, activity compared to that of isoproterenol (L6-myotubes [2]; hydrochloride): +++ (more than 75% of that of isoproterenol)
CS(=O)(=O)N(Cc1ccccc1)[C@H]1CC[C@@H](C[C@@H]2CC[C@H]([C@H](O)c3cccc(F)c3)N2)CC1 [Example 37, N-Benzyl-N-((1R,4s)-4-(((2S,5R)-5-((R)-(3-fluorophenyl)(hydroxy)methyl) -pyrrolidin-2-yl)methyl)cyclohexyl)methanesulfonamide hydrochloride]	50 to 75	< 25	–
